Assay results as given in paper PMC5967867, “An NMDAR positive and negative allosteric modulator series share a binding site and are interconverted by methyl groups” (eLife, 2018).
Where “and” joins values, the source holds several entries; their conditions need not be identical. Identical values can stand only once. Like-named read-outs stand apart in the source and are kept apart here. Marks after values point to notes of the source that are not given here.

Columns and labels:
Assay type in all cases: cell-based
[1] = biological target: GluN1/GluN2C NMDARs (Rattus norvegicus, UniProt P35439+Q00961); experiment: Two-electrode voltage-clamp recordings, Xenopus laevis oocytes expressing GluN1/GluN2C; details: for Modulation by 10 µM (% of control): 10 µM modulator; for Emax: read-out: Maximal Degree of Modulation (% of control)
Protocol: (§1) cDNAs for rat wild type NMDAR subunits GluN1-1a (GenBank U11418, U08261; hereafter GluN1 or GluN1a), GluN1-1b (U08263, hereafter GluN1b), GluN2A (D13211), GluN2B (U11419), GluN2C (M91563), and GluN2D (L31611, modified as described in [Monyer et al., 1994]) were provided by Drs. S. Heinemann (Salk Institute), S. Nakanishi (Kyoto University), and P. Seeburg (University of Heidelberg). Site-directed mutagenesis was conducted using the QuikChange kit (Agilent Technologies, Santa Clara, CA) following the recommended protocol. DNA sequencing was used to verify all mutations. The amino acid numbering system started with the initiating methionine as residue number one. For expression in Xenopus laevis oocytes, cDNA constructs were linearized by restriction enzymes, and subsequently used to synthesize in vitro cRNAs following the manufacturer’s protocol (mMessage mMachine, Ambion, ThermoFisher Scientific, Waltham, MA).
(§2) Xenopus laevis stage VI oocytes (Ecocyte Biosciences, Austin, TX) were injected as previously described ([Hansen et al., 2013]) 2–7 days prior to recording with cRNA encoding the NMDAR subunits and stored at 15°C in media containing (in mM) 88 NaCl, 2.4 NaHCO3, 1 KCl, 0.33 Ca(NO3)2, 0.41 CaCl2, 0.82 MgSO4, 5 Tris-HCl; pH was adjusted to 7.4 with NaOH and the solution supplemented with 1 U/mL penicillin, 0.1 mg/mL gentamicin sulfate, and 1 μg/mL streptomycin. Two-electrode voltage-clamp recordings were performed at room temperature (21–23°C) using different internal solutions for voltage and current electrodes (0.3 M and 3.0 M KCl, respectively). All extracellular solutions were made from a solution containing (in mM) 90 NaCl, 1 KCl, 10 HEPES, 0.5 BaCl2, 0.01 EDTA (pH 7.4 with NaOH). Experiments were performed using an eight port Modular Valve Positioner (Hamilton Company, Reno, NV) and controlled by custom software (Easy Oocyte, Emory University, Atlanta, GA)to exchange solutions. Oocyte currents were recorded at a holding potential of −40 mV using a two-electrode voltage-clamp amplifier (OC-725B or OC-725C, Warner Instruments, Hamden, CT). […] In MTSEA experiments, fresh MTSEA solutions (0.2 mM) were prepared and utilized in less than 30 min to limit compound degradation.
(§3) Measurements are given as mean ± SEM unless otherwise indicated. The number of replicate experiments used was chosen to ensure a power level of at least 0.80 when α = 0.05 and when detecting appropriate effect sizes. EC50 and IC50 values and confidence intervals reported were calculated by averaging the log(EC50) or log(IC50) value, determining confidence intervals for mean log(EC50) or log(IC50), and converting back to units of molarity. Statistical significance evaluations (α set to 0.05) were performed using a one-way ANOVA with Dunnett’s multiple comparison test, a paired t–test, or other appropriate tests as described.

[2] = biological target: GluN1/GluN2A NMDARs (Rattus norvegicus, UniProt P35439+Q00959); experiment: Two-electrode voltage-clamp recordings, Xenopus laevis oocytes expressing GluN1/GluN2A; details: for EC50: read-out: EC50 (µM) [conf. int.]; for Emax: read-out: Maximal Degree of Modulation (% of control)
Protocol: as §1, §2, §3

[3] = biological target: GluN1/GluN2B NMDARs (Rattus norvegicus, UniProt P35439+Q00960); experiment: Two-electrode voltage-clamp recordings, Xenopus laevis oocytes expressing GluN1/GluN2B; details: for Emax: read-out: Maximal Degree of Modulation (% of control)
Protocol: as §1, §2, §3

[4] = biological target: GluN1/GluN2D NMDARs (Rattus norvegicus, UniProt P35439+Q62645); experiment: Whole cell patch-clamp recordings, HEK293 cells expressing GluN1/GluN2D; details: for kon / koff: HEK293; for kon: read-out: association rate kon; for koff: read-out: dissociation rate koff; for Kd: calculated from association and dissociation rates, HEK cells, read-out: kinetically-determined affinity constant Kd
Protocol: We studied NMDARs expressed in HEK293 cells to investigate the time course of modulator action. […] These modulators were tested on GluN1/GluN2A and GluN1/GluN2D to see whether there were differences in modulation given the distinct properties of these NMDAR subtypes. […] The time-course of modulator binding of EU1794-2, EU1794-4 and EU1794-27 was also determined for GluN1/GluN2A (Figure 4C,D).
as §1
HEK293 cells (CRL-1573, ATCC, Manassas, VA) were maintained in a tissue culture room solely reserved for their culturing and transfected using a CaPO4 protocol to express the diheteromeric NMDARs as previously described ([Hansen et al., 2013]). Cell lines were obtained directly from the supplier, were expanded, frozen and kept in liquid nitrogen in a dewar. Mycoplasma testing was not performed. cDNA ratios for transfection were 1:1:1 (GluN2D) or 1:1:5 (GluN2A) for GluN1:GluN2:GFP.

[5] = Glu/Gly 1/0.3 µM (sub-saturating)
[6] = glutamate/glycine 100/30 µM, no second modulator (+EU1794-27 0 µM), read-out: IC50 (µM) [conf. int.]
[7] = saturating glutamate/glycine 100/30 µM, mean [95% CI], read-out: EC50 (µM) [conf. int.]
[8] = saturating glutamate/glycine 100/30 µM, mean ± SEM
[9] = sub-saturating glutamate/glycine 1/0.3 µM, read-out: EC50 (µM) [conf. int.]
[10] = sub-saturating glutamate/glycine 1/0.3 µM
[11] = saturating glutamate/glycine 100/30 µM, mean [95% CI], - = not fit, response at 30 µM differed by no more than 15% from control
[12] = saturating glutamate/glycine 100/30 µM, mean [95% CI], - = not fit, response at 30 µM differed by no more than 15% from control, read-out: EC50 (µM) [conf. int.]
[13] = +EU1794-2 1 µM, glutamate/glycine 100/30 µM, read-out: EU1794-27 EC50 (µM) [conf. int.]
[14] = +EU1794-2 3 µM, glutamate/glycine 100/30 µM, read-out: EU1794-27 EC50 (µM) [conf. int.]
[15] = sub-saturating glutamate/glycine 2/0.6 µM
[16] = concentration dependence of linear component of time course

GluN1/GluN2A NMDARs, sequence (Q00959 23-1464, other chains not shown): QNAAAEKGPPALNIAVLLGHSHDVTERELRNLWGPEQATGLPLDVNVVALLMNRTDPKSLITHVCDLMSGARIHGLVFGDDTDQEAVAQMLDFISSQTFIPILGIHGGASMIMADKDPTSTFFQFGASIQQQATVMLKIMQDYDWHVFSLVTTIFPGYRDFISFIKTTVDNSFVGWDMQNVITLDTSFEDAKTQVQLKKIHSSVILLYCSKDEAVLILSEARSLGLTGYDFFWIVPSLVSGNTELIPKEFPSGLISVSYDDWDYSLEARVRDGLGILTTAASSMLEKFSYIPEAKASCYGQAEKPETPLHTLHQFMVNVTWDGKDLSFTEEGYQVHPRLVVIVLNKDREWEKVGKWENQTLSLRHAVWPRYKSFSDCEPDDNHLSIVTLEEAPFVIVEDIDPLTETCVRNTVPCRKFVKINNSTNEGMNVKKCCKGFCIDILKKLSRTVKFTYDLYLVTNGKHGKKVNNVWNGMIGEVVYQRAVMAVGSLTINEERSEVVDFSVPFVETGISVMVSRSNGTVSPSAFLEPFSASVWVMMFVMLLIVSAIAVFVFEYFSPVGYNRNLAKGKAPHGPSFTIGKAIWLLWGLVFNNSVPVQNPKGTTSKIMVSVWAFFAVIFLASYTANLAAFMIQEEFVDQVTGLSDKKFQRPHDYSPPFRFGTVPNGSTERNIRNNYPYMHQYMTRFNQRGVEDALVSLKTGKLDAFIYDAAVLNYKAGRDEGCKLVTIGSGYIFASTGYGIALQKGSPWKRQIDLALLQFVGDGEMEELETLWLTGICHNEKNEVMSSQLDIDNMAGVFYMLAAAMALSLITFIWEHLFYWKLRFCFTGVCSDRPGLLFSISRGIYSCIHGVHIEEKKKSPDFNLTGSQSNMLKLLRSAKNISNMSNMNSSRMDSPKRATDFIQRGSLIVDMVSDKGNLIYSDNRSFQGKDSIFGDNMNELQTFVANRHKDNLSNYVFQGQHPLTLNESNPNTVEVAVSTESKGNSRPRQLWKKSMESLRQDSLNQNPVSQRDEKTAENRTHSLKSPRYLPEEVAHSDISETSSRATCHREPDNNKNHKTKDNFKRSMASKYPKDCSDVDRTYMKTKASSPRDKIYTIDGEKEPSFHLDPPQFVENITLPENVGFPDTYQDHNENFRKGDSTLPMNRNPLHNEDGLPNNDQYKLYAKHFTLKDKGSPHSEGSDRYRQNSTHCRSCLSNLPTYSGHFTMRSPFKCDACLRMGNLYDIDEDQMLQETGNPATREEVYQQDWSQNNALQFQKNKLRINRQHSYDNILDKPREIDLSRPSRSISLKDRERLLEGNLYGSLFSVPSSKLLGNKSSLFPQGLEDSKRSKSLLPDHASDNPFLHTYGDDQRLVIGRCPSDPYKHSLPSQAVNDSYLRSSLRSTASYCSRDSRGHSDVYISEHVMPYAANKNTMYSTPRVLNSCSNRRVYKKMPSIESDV
GluN1/GluN2B NMDARs, sequence (Q00960 27-1482, other chains not shown): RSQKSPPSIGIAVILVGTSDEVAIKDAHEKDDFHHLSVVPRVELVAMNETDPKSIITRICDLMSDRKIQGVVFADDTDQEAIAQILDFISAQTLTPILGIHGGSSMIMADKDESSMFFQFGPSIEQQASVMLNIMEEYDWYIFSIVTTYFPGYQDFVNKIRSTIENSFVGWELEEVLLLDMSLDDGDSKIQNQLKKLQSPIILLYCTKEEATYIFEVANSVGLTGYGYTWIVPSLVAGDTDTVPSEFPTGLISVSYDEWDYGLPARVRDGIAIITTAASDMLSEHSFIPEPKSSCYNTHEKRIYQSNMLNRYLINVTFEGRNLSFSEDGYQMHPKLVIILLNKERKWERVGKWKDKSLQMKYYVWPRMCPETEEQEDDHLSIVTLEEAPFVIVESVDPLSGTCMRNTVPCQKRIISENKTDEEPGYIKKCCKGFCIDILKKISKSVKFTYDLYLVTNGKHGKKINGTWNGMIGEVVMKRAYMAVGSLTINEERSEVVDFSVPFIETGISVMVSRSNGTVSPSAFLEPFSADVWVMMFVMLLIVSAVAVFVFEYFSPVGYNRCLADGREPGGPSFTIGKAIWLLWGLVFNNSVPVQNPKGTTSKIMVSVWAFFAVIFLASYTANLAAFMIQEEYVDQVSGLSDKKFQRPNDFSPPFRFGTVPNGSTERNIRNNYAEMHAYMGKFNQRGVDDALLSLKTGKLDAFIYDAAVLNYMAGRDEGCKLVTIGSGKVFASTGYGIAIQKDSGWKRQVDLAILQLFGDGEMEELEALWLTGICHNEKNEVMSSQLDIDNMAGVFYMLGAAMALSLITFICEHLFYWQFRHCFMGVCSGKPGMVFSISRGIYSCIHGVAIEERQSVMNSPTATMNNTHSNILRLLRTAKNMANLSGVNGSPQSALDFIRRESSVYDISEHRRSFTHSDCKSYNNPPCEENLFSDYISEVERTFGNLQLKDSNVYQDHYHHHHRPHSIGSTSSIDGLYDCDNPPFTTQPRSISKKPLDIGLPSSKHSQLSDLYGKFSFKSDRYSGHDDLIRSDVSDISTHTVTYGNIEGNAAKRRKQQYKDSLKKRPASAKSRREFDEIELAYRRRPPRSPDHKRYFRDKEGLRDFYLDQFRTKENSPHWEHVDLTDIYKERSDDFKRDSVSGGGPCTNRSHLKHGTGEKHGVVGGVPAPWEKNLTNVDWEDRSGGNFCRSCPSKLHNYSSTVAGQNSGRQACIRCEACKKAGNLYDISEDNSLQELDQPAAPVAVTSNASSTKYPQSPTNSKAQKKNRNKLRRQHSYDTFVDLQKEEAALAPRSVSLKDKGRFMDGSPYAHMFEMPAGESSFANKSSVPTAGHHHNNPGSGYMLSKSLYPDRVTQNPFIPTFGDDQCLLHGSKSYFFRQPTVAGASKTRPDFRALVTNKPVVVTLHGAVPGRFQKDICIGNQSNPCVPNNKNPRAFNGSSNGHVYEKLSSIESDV
GluN1/GluN2C NMDARs, sequence (Q00961 20-1237, other chains not shown): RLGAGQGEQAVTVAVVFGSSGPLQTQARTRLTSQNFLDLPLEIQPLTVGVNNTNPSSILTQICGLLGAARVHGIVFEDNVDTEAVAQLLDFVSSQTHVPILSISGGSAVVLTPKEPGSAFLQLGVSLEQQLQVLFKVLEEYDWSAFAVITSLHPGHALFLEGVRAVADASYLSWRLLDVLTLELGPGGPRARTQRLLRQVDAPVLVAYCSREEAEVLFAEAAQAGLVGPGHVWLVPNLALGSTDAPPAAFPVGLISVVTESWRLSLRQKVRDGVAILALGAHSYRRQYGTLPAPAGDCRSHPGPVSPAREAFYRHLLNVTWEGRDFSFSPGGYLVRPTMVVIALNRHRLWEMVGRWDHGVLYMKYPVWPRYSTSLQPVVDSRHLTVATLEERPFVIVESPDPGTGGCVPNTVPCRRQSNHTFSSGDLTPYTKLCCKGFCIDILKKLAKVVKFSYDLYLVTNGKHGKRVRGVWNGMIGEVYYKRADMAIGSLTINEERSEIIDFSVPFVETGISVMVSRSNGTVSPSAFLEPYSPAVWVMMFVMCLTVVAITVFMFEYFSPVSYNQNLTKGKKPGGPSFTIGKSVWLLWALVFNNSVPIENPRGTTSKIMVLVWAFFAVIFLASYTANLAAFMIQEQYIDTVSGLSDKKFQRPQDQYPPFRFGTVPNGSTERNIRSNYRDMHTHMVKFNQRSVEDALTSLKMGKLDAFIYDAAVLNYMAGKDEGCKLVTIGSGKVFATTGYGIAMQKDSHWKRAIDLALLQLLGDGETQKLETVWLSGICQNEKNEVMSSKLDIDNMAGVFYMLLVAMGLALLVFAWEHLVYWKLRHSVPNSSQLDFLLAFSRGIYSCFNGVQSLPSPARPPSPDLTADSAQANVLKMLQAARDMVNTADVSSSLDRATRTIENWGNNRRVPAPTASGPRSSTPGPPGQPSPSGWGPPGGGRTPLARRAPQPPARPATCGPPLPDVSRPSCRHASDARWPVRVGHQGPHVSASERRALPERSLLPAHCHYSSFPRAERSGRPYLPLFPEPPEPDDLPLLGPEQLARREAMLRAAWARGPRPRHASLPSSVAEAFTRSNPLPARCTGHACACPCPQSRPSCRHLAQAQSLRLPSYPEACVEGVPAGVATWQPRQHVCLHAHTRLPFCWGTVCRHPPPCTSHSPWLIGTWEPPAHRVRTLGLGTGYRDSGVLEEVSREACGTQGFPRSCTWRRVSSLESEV

SMILES | Modulation by 10 µM (% of control) [1, 5] | Modulation by 10 µM (% of control) ([1]; Glu/Gly 100/30 µM) | EC50 [1, 7] | Emax [1, 8] | EC50 [1, 9] | Emax [1, 10] | EC50 [2, 11] | Emax [2, 8] | EC50 [3, 12] | Emax [3, 8] | EC50 [3, 9] | Emax [3, 10] | kon [4] | koff [4] | Kd [4] | further results
CCOC(=O)c1c(NC(=O)CC2SC(=N)NC2=O)sc2c1CCCC2 (centres unmarked) [EU1794-4, ethyl 2-(2-(2-imino-4-oxothiazolidin-5-yl)acetamido)-4,5,6,7-tetrahydrobenzo[b]thiophene-3-carboxylate] | 140 ± 12 % of control | 54 ± 1.6 % of control | 0.42 µM | 52% | 15 µM | 220% | 2.2 µM | 32% | 2.6 µM | 67% | 4.3 µM | 210% | 1.12e+06 M⁻¹ s⁻¹ | 4.66 s⁻¹ | 4.2 µM and 4.16 µM | Modulation by 10 µM (% of control) ([1]; Glu/Gly 0.3/0.09 µM (sub-saturating)): 660 ± 110 % of control; Fold Difference (glutamate EC50) ([1]; control vs 10 µM EU1794-4): 3.2^†; Fold Difference (glycine EC50) ([1]; control vs 10 µM EU1794-4): 4.6^†; IC50 [1, 6]: 0.42 µM; Fold Difference (glutamate EC50) ([2]; control vs 10 µM EU1794-4): 2.4^†; Fold Difference (glycine EC50) ([2]; control vs 10 µM EU1794-4): 2.8^†; IC50 [2, 6]: 2.2 µM; EC50 [2, 10]: 3.9 µM; Emax [2, 10]: 500%; Fold Difference (glutamate EC50) ([3]; control vs 10 µM EU1794-4): 2.0^†; Fold Difference (glycine EC50) ([3]; control vs 10 µM EU1794-4): 3.3^†; IC50 ([3]; read-out: IC50 (µM) [conf. int.]): 2.6 µM
CC(C)(C)OC(=O)c1c(NC(=O)CC2SC(=N)NC2=O)sc2c1CCCC2 (centres unmarked) [EU1794-27, tert-butyl 2-(2-(2-imino-4-oxothiazolidin-5-yl)acetamido)-4,5,6,7-tetrahydrobenzo[b]thiophene-3-carboxylate] | 480 ± 31 % of control | 190 ± 10 % of control | 2.8 µM | 230% | 5 µM | 680% | 7.4 µM | 52% | 1.4 µM | 130% | 6.3 µM | 400% | 187000 M⁻¹ s⁻¹ | 0.802 s⁻¹ | 4.3 µM | EC50 [1, 13]: 7.3 µM; EC50 [1, 14]: 7.3 µM; Fold Difference (glutamate EC50) ([1]; control vs 10 µM EU1794-27): 3.3^†; Fold Difference (glycine EC50) ([1]; control vs 10 µM EU1794-27): 2.4; Fold Difference (glutamate EC50) ([2]; control vs 10 µM EU1794-27): 2.3^†; Fold Difference (glycine EC50) ([2]; control vs 10 µM EU1794-27): 1.6; EC50 [2, 15]: 8.1 µM; Emax [2, 15]: 340%; EC50 [3, 13]: 6 µM; EC50 [3, 14]: 8.4 µM; Fold Difference (glutamate EC50) ([3]; control vs 10 µM EU1794-27): 2.0^†; Fold Difference (glycine EC50) ([3]; control vs 10 µM EU1794-27): 2.9^†; association linear component slope mon [4, 16]: −0.98 pA/(ms*µM); dissociation linear component slope moff [4, 16]: 0.62 pA/(ms*µM)
